Drawing on ChEMBL document CHEMBL1146649, “New highly active taxoids from 9 beta-dihydrobaccatin-9,10-acetals. Part 5” (2004), this text covers ED50 and GI50 for 10 molecules.

Assay type in all cases: functional
Assay [1] deals with B16. The assay can be described thus: Effective dose of intravenously administered compound against B16 melanoma BL6 cells implanted into mice. The following applies: Mus musculus, B16, iv.
Assay [2] deals with B16. The assay can be described thus: Effective dose of perorally administered compound against B16 melanoma BL6 cells implanted into mice. To be noted: Mus musculus.
The test system of the next assay is P388. The assay can be described thus: Concentration required to inhibit mouse P388 cell line growth by 50% at 72 hr continuous exposure. To be noted: P388, 72 h.
For assay [3], the system named is PC-6. Kind of assay: Concentration required to inhibit human PC-6/VP1-1 cell line growth by 50% at 72 hr exposure. The following applies: PC-6, 72 h.
For assay [4], the system named is PC-6. The assay can be described thus: Concentration required to inhibit human PC-6 cell line growth by 50% at 72 hr continuous exposure. The following applies: PC-6, 72 h.
Assay [5] deals with PC-6. Kind of assay: Concentration required to inhibit human PC-6/VCR29-9 cell line growth by 50% at 72 hr exposure. To be noted: PC-6, 72 h.
The next assay has as its system PC-12. The assay can be described thus: Concentration required to inhibit human PC-12 cell line growth by 50% at 72 hr continuous exposure. The following applies: PC-12, 72 h.
Assay [6] concerns PC-6. Kind of assay: Concentration that inhibited the growth of PC-6/VCR29-9 cells by 50% at 72 hr continuous exposure. The following applies: Homo sapiens, PC-6, 72 h.
Assay [7] concerns PC-6. The assay can be described thus: Concentration required to inhibit human PC-6/VCR29-9 cell line growth by 50% at 72 hr of exposure. The following applies: PC-6, 72 h.

Molecules are shown by their SMILES. Values after ≈ are worked out from the molar mass of the structure shown.

A word on the ED50: it is the midpoint of the dose-response relation. Read a high ED50 as weaker potency. The GI50 is the concentration giving 50% growth inhibition. With `CC(=O)O[C@@]12CO[C@@H]1CC[C@@]1(C)[C@@H]3O[C@H](CN(C)C)O[C@@H]3C3=C(C)[C@@H](OC(=O)[C@H](O)[C@@H](NC(=O)OC(C)(C)C)C(C)(C)C)C[C@@](O)([C@@H](OCc4ccccc4)[C@@H]12)C3(C)C`, the 50% effective dose (ED50) stood at 11.9 mg/kg in the assay on B16 [1] and 11.9 mg/kg in the assay on B16 [2] (B16, po). The GI50 with P388 is 0.73 ng/mL (≈ 0.881 nM); with PC-6 [3], 15.7 ng/mL (≈ 18.9 nM); with PC-6 [4], 0.67 ng/mL (≈ 0.808 nM); in the assay on PC-6 [5], 1.42 ng/mL (≈ 1.71 nM); with PC-12 it was 0.5 ng/mL (≈ 0.603 nM).

As to `CC(=O)O[C@@]12CO[C@@H]1CC[C@@]1(C)[C@@H]3O[C@H](CN4CCOCC4)O[C@@H]3C3=C(C)[C@@H](OC(=O)[C@H](O)[C@@H](NC(=O)OC(C)(C)C)c4ccc(F)cn4)C[C@@](O)([C@@H](OCc4ccccc4)[C@@H]12)C3(C)C`, the ED50 with B16 [1] is 3.5 mg/kg; in the assay with B16 [2] (B16, po) it was 7.9 mg/kg.

For the molecule `CC(=O)O[C@@]12CO[C@@H]1CC[C@@]1(C)[C@@H]3O[C@H](CN4CCOCC4)O[C@@H]3C3=C(C)[C@@H](OC(=O)[C@H](O)[C@@H](NC(=O)OC(C)(C)C)c4cncs4)C[C@@](O)([C@@H](OCc4ccccc4)[C@@H]12)C3(C)C`, the ED50 in the assay on B16 [1] is 7.9 mg/kg; with B16 [2] it was “None”. Moreover, the GI50 was 0.66 ng/mL (≈ 0.735 nM) in the assay on PC-6 [6]; 0.04 ng/mL (≈ 0.0445 nM) in the assay on P388; 20.5 ng/mL (≈ 22.8 nM) in the assay with PC-6 [3]; 0.07 ng/mL (≈ 0.0779 nM) with PC-6 [4]; 0.12 ng/mL (≈ 0.134 nM) with PC-12.

As to `CC(=O)O[C@H]1C(=O)[C@@]2(C)[C@H]([C@H](OCc3ccccc3)[C@]3(O)C[C@H](OC(=O)[C@H](O)[C@@H](NC(=O)c4ccccc4)c4ccccc4)C(C)=C1C3(C)C)[C@]1(OC(C)=O)CO[C@@H]1C[C@@H]2O`, the GI50 in the assay on PC-6 [7] is 455 ng/mL (≈ 542 nM); in the assay on P388, 2.93 ng/mL (≈ 3.49 nM); with PC-6 [3], 1000 ng/mL (≈ 1190 nM); with PC-6 [4], 1.27 ng/mL (≈ 1.51 nM); in the assay with PC-12 it was 539 ng/mL (≈ 642 nM).

As for `CNC[C@@H]1O[C@@H]2C3=C(C)[C@@H](OC(=O)[C@H](O)[C@@H](NC(=O)OC(C)(C)C)c4ccccn4)C[C@@](O)([C@@H](OCc4ccccc4)[C@H]4[C@@](C)(CC[C@H]5OC[C@]54OC(C)=O)[C@@H]2O1)C3(C)C`, the GI50 with P388 was found to be 0.6 ng/mL (≈ 0.718 nM); in the assay with PC-6 [3] it was 265 ng/mL (≈ 317 nM); in the assay on PC-6 [4], 0.54 ng/mL (≈ 0.646 nM); in the assay with PC-6 [5] it was 43.2 ng/mL (≈ 51.7 nM); in the assay with PC-12, 5.82 ng/mL (≈ 6.96 nM).

With `CC(=O)O[C@@]12CO[C@@H]1CC[C@@]1(C)[C@@H]3O[C@H](CNC4CC4)O[C@@H]3C3=C(C)[C@@H](OC(=O)[C@H](O)[C@@H](NC(=O)OC(C)(C)C)c4nccs4)C[C@@](O)([C@@H](OCc4ccccc4)[C@@H]12)C3(C)C`, the GI50 with P388 is 0.06 ng/mL (≈ 0.0691 nM); in the assay with PC-6 [3] it was 39.4 ng/mL (≈ 45.4 nM); in the assay on PC-6 [4], 0.42 ng/mL (≈ 0.484 nM); in the assay with PC-6 [5], 1.16 ng/mL (≈ 1.34 nM); in the assay on PC-12, 0.12 ng/mL (≈ 0.138 nM).

As for `CC(=O)O[C@@]12CO[C@@H]1CC[C@@]1(C)[C@@H]3O[C@H](CNC4CC4)O[C@@H]3C3=C(C)[C@@H](OC(=O)[C@H](O)[C@@H](NC(=O)OC(C)(C)C)c4ccccn4)C[C@@](O)([C@@H](OCc4ccccc4)[C@@H]12)C3(C)C`, the GI50 in the assay with P388 came out at 0.17 ng/mL (≈ 0.197 nM); in the assay with PC-6 [3], 49.4 ng/mL (≈ 57.3 nM); in the assay on PC-6 [4], 0.54 ng/mL (≈ 0.626 nM); in the assay on PC-6 [5], 2.22 ng/mL (≈ 2.58 nM); in the assay with PC-12 it was 0.3 ng/mL (≈ 0.348 nM).

With `CC(=O)O[C@@]12CO[C@@H]1CC[C@@]1(C)[C@@H]3O[C@H](CN(C)C)O[C@@H]3C3=C(C)[C@@H](OC(=O)[C@H](O)[C@@H](NC(=O)OC(C)(C)C)c4cscn4)C[C@@](O)([C@@H](OCc4ccccc4)[C@@H]12)C3(C)C`, the GI50 is 1.1 ng/mL (≈ 1.28 nM) in the assay with PC-6 [6]; 0.06 ng/mL (≈ 0.0701 nM) in the assay with P388; 17.3 ng/mL (≈ 20.2 nM) in the assay with PC-6 [3]; 0.35 ng/mL (≈ 0.409 nM) in the assay on PC-6 [4]; 0.19 ng/mL (≈ 0.222 nM) in the assay on PC-12.

`CC(=O)O[C@@]12CO[C@@H]1CC[C@@]1(C)[C@@H]3O[C@H](CN(C)C)O[C@@H]3C3=C(C)[C@@H](OC(=O)[C@H](O)[C@@H](NC(=O)OC(C)(C)C)c4cncs4)C[C@@](O)([C@@H](OCc4ccccc4)[C@@H]12)C3(C)C`: the GI50 with PC-6 [6] is 1.63 ng/mL (≈ 1.9 nM); in the assay with P388 it was 0.07 ng/mL (≈ 0.0818 nM); with PC-6 [3] it was 23.8 ng/mL (≈ 27.8 nM); in the assay with PC-6 [4], 0.3 ng/mL (≈ 0.35 nM); with PC-12, 0.17 ng/mL (≈ 0.199 nM).

Consider `COc1ccc([C@H](NC(=O)OC(C)(C)C)[C@@H](O)C(=O)O[C@H]2C[C@@]3(O)[C@@H](OCc4ccccc4)[C@H]4[C@@](C)(CC[C@H]5OC[C@]54OC(C)=O)[C@@H]4O[C@H](CN5CCOCC5)O[C@@H]4C(=C2C)C3(C)C)nc1`, for which the ED50 in the assay on B16 [1] came out at 5.9 mg/kg; in the assay on B16 [2] (B16, po), 13.3 mg/kg.
